Measurements reported in patent US20250319032A1, “PHARMACEUTICAL COMPOSITIONS OF RIBOCICLIB” (Novartis AG, priority 2024, published 2025).

How the values were obtained:
[1] = DMP433 (N-nitroso-ribociclib) content in ribociclib base (B10) and ribociclib succinate (B12, drug substance) batches and process experiments, LC-MS/MS or HPLC-HRMS; assay type: physicochemical; conditions: for DMP433 [ppm] LOQ (0.0625 ppm) / DMP433 [ppm], result in brackets (extrapolation, estimate of actual value below LOQ): ribociclib base (LEE011 B10); for DMP433 in B10: starting material of 5 kg technical batches
Source text: The method of testing for the presence and/or total amount of nitrosamines (such as the presence and/or total amount of N-nitroso-ribociclib in free or salt form) that is used in the methods of the invention may be any method which allows for the detection of nitrosamines in a composition. For example, the method may involve the Griess test described above. In such a method, the nitrosamines may be first denitrosated (e.g., by photolysis) to form a nitrite, which is then detected in the Griess test. Alternatively, the method may include high performance liquid chromatography (HPLC)- and/or gas chromatography (GC)-mass spectroscopy. An example of a method of testing for the presence and amount of nitrosamines (namely N-nitroso-ribociclib) is provided herein as Example 14. […]
2.7. […] Dissolve the substance using vortex and fill to volume with solvent (50% MeOH). • 3. Filter through 0.2 μm PVDF (polyvinylidene difluoride) or PTFE (polytetrafluoroethylene) filter into a HPLC amber vial, discard the first 0.5 ml.
A calibration curve for DMP433 is created, using calibration standard solutions L1-L6, and expressing the relationship between responses (peak areas) and standard concentrations (ng/ml). For L1, the average of 6 injections is used. Linear regression is weighed with 1/amount. […]

[2] = Nitrite content (ion chromatography; LC-FLD with DAN derivatisation; Griess test) in drug substance, intermediates, reagents, solvents, filters, excipients; assay type: physicochemical; conditions: for Nitrite NAP method (ppm) / Nitrite NAT enhanced sample prep. (ppm): ribociclib succinate drug substance batches at release
Source text: The method of testing for the presence and/or total amount of nitrites that is used in the methods of the invention may be any method which allows for the detection and/or quantitation of nitrites in a composition. For example, the method may be the Griess test. The Griess test allows for the detection and analysis of nitrite by the formation of a red-pink colour upon treatment of a nitrite-containing sample with the Griess reagent. The Griess reagent consists of two components in an acidic solution: an aniline derivative and a coupling agent. The most common arrangements use sulfanilamide and N-(1-naphthyl)ethylenediamine. For example 0.2% N-(1-naphthyl)ethylenediamine dihydrochloride and 2% sulfanilamide in 5% phosphoric acid may be used as a Griess reagent. Other aniline derivatives that may be used in a Griess reagent include sulfanilic acid, nitroaniline, and p-aminoacetophenone.
The Griess test involves two subsequent reactions, as shown in the scheme below. When the aniline derivative (e.g., sulfanilamide) is added, the nitrite ion reacts with it in the Griess diazotization reaction to form a diazonium salt, which then reacts with N-(1-naphthyl)ethylenediamine in an azo-coupling reaction, forming a pink-red azo-dye. Using a spectrophotometer, the nitrite concentration can then be quantitatively detected.
Additionally purified water; e.g. Milli Q • 2.
• 10 mM KH2PO4 Weigh accurately about 1.361 g of KH2PO4 into a 1 L volumetric flask, dissolve it in approximately 950 mL of additionally purified water and adjust the pH to 8.0 (with 2.7 M NaOH). Make up to the mark with additionally purified water. • 0.62 M HCl Add a few millilitres (e.g. 20 mL) of additionally purified water to a 200 mL volumetric flask, add 10.280 mL of concentrated HCl, mix and make up to the mark with additionally purified water. • 2.7 M NaOH Weigh accurately about 1.092 g of NaOH pellets into a 10 mL volumetric flask and dissolve it in additionally purified water. Cool to room temperature and make up to the mark with the same solvent. • Reagent DAN Weigh accurately about 5 mg of 2,3-diaminophthalene into a 100 mL volumetric flask and dissolve it with the solvent (methanol/water 1:1 (v/v)). Dilute up to the mark and ensure visual full dissolution. Use an amberglass flask. • Mobile phase A Mix 950 mL of 10 mM KH2PO4 solution (pH=8) and add 50 mL methanol. • Mobile phase B Methanol. • Solvent Methanol/water 1:1 (v/v), e.g. mix 2000 mL of additionally purified water and 2000 mL methanol.
• Instrument: HPLC with FLR detector; e.g. Waters Arc or equivalent • Column: C18 50×4.6 mm, 2.5 μm, e.g. XBridge C18 2.5 μm, 4.650 mm or equivalent
• Notes It is recommended to wear additional protective equipment (face mask and gloves) during weighing. • It is recommended to wash the column with 50% methanol after the analysis (example of preparation: mix 500 mL methanol and 500 m1 of additionally purified water). • It is recommended to rinse the injector with solvent after each injection. • All glassware and tools should be rinsed with additionally purified water before use. It is not recommended to leave the solutions open for a longer time before measurement. • Blank solution 1 Transfer 1 mL of solvent into a HPLC vial and perform derivatization as described below. • Blank solution 2 Transfer 10 mL of solvent into a single use glass vial and mix it on a magnetic stirrer for 30 min. Transfer the solution into a 5 mL centrifuge tube and centrifuge for 10 min at 12000 rpm. […] Fill up to the mark with solvent and mix. • (Cnitrite≈0.0005 mg/mL) • Comparison solution Transfer 10 mL of nitrite stock solution into a 500 mL volumetric flask. • (2 parallels) Fill up to the mark with solvent and mix. • Transfer 1 mL solution into a HPLC vial and perform the derivatization as described below. • (Cnitrite≈100 ppb) • Sample solution Accurately weigh about 1000 mg of the sample into a glass vial for single use and add 10 mL of solvent.

Structure (SMILES): CN(C)C(=O)c1cc2cnc(Nc3ccc(N4CCNCC4)cn3)nc2n1C1CCCC1 [Batch B704194]
- DMP433 [ppm] LOQ (0.0625 ppm) [1]: LOQ
- DMP433 [ppm], result in brackets (extrapolation, estimate of actual value below LOQ) [1]: 0.005 ppm

Structure (SMILES): CN(C)C(=O)c1cc2cnc(Nc3ccc(N4CCNCC4)cn3)nc2n1C1CCCC1.O=C(O)CCC(=O)O [Technical batch 1]
- DMP433 in B10 [1]: 55.8 ppb

Structure (SMILES): CN(C)C(=O)c1cc2cnc(Nc3ccc(N4CCNCC4)cn3)nc2n1C1CCCC1.O=C(O)CCC(=O)O [Batch B728969]
- N-nitroso-ribociclib ([1]; starting material used for technical batch NV1900): 0.21 ppm

Structure (SMILES): CN(C)C(=O)c1cc2cnc(Nc3ccc(N4CCNCC4)cn3)nc2n1C1CCCC1.O=C(O)CCC(=O)O [LEE011-haenepa1-012]
- DMP433 in LEE011-B12 ([1]; washing of isolated ribociclib succinate, laboratory scale (conditions per experiment)): 746 ppb

Structure (SMILES): CN(C)C(=O)c1cc2cnc(Nc3ccc(N4CCNCC4)cn3)nc2n1C1CCCC1.O=C(O)CCC(=O)O [LEE011-haenepa1-013]
- DMP433 in LEE011-B12 ([1]; re-slurry of LEE011-B12 in iPrOH at 10° C.): 64 ppm

Structure (SMILES): CN(C)C(=O)c1cc2cnc(Nc3ccc(N4CCNCC4)cn3)nc2n1C1CCCC1.O=C(O)CCC(=O)O [Batch B0705468]
- DMP433 [ppm] LOQ (0.0625 ppm) [1]: LOQ
- DMP433 [ppm], result in brackets (extrapolation, estimate of actual value below LOQ) [1]: 0.030 ppm

Structure (SMILES): CN(C)C(=O)c1cc2cnc(Nc3ccc(N4CCNCC4)cn3)nc2n1C1CCCC1 [Batch B0705466]
- DMP433 [ppm] LOQ (0.0625 ppm) [1]: LOQ
- DMP433 [ppm], result in brackets (extrapolation, estimate of actual value below LOQ) [1]: 0.043 ppm

Structure (SMILES): CN(C)C(=O)c1cc2cnc(Nc3ccc(N4CCNCC4)cn3)nc2n1C1CCCC1.O=C(O)CCC(=O)O [Technical batch 2]
- DMP433 in B10 [1]: 55.8 ppb
- reduction of the amount of DMP433 formed by use of distilled iPrOH ([1]; technical batch 2 (distilled) vs technical batch 1 (non-distilled)): approx. 50%

Structure (SMILES): CN(C)C(=O)c1cc2cnc(Nc3ccc(N4CCNCC4)cn3)nc2n1C1CCCC1.O=C(O)CCC(=O)O [Batch B699003AA]
- DMP433 content (corrected value) at release ([1]; drug substance DS06 used for tablet core experiments and binary mixtures): 0.655 ppm

Structure (SMILES): CN(C)C(=O)c1cc2cnc(Nc3ccc(N4CCNCC4)cn3)nc2n1C1CCCC1 [Batch B0705467]
- DMP433 [ppm] LOQ (0.0625 ppm) [1]: LOQ
- DMP433 [ppm], result in brackets (extrapolation, estimate of actual value below LOQ) [1]: 0.035 ppm

Structure (SMILES): CN(C)C(=O)c1cc2cnc(Nc3ccc(N4CCNCC4)cn3)nc2n1C1CCCC1 [Batch B704196]
- DMP433 [ppm] LOQ (0.0625 ppm) [1]: LOQ
- DMP433 [ppm], result in brackets (extrapolation, estimate of actual value below LOQ) [1]: 0.019 ppm

Structure (SMILES): CN(C)C(=O)c1cc2cnc(Nc3ccc(N4CCNCC4)cn3)nc2n1C1CCCC1 [Batch B685591]
- Nitrite [ppm] LOD (1 ppm) ([2]; ribociclib base (LEE011 B10), ion chromatography): <LOD

Structure (SMILES): CN(C)C(=O)c1cc2cnc(Nc3ccc(N4CCNCC4)cn3)nc2n1C1CCCC1.O=C(O)CCC(=O)O [Batch B695105]
- Nitrite NAP method (ppm) [2]: 0.3 ppm
- Nitrite NAT enhanced sample prep. (ppm) [2]: 0.3 ppm

Structure (SMILES): CN(C)C(=O)c1cc2cnc(Nc3ccc(N4CCNCC4)cn3)nc2n1C1CCCC1.O=C(O)CCC(=O)O [Batch B699003]
- Nitrite NAP method (ppm) [2]: 0.1 ppm
- Nitrite NAT enhanced sample prep. (ppm) [2]: <0.1 ppm

Structure (SMILES): CN(C)C(=O)c1cc2cnc(Nc3ccc(N4CCNCC4)cn3)nc2n1C1CCCC1.O=C(O)CCC(=O)O [Batch B710665]
- Nitrite NAP method (ppm) [2]: 0.2 ppm
- Nitrite NAT enhanced sample prep. (ppm) [2]: 1.6 ppm

Structure (SMILES): CN(C)C(=O)c1cc2cnc(Nc3ccc(N4CCNCC4)cn3)nc2n1C1CCCC1.O=C(O)CCC(=O)O [Batch B708687]
- Nitrite NAP method (ppm) [2]: 0.2 ppm
- Nitrite NAT enhanced sample prep. (ppm) [2]: <0.1 ppm

Structure (SMILES): CN(C)C(=O)c1cc2cnc(Nc3ccc(N4CCNCC4)cn3)nc2n1C1CCCC1.O=C(O)CCC(=O)O [RIBOCICLIB SUCCINATE 833268R008]
- Nitrite NAT enhanced sample prep. (ppm) ([2]; manufacturer Raybow - DS04): 0.3 ppm

Structure (SMILES): CN(C)C(=O)c1cc2cnc(Nc3ccc(N4CCNCC4)cn3)nc2n1C1CCCC1.O=C(O)CCC(=O)O [RIBOCICLIB SUCCINATE 834325A015]
- Nitrite NAT enhanced sample prep. (ppm) ([2]; manufacturer Raybow - DS05): 0.1 ppm

Structure (SMILES): CN(C)C(=O)c1cc2cnc(Nc3ccc(N4CCNCC4)cn3)nc2n1C1CCCC1.O=C(O)CCC(=O)O [RIBOCICLIB SUCCINATE 833268A201]
- Nitrite NAT enhanced sample prep. (ppm) ([2]; manufacturer Raybow - DS04): 0.1 ppm
- Nitrite NAT enhanced sample prep. (ppm) ([2]; manufacturer Raybow - DS05): 0.1 ppm
